# “Also recorded” adds a separate entry of the source.
# How the values were obtained:
# [1] = system: medial forebrain bundle self-stimulation in rats; conditions: doses 5.6, 10 mg/kg, Hillhouse et al., 2014; cited from earlier work
# patients with depression = conditions: oral; Non Patent Literatures 15 and 16; cited from earlier work
# [2] = system: development of drug tolerance to ethanol; conditions: tilt-plane test, Khanna et al., 1993; cited from earlier work
# [3] = system: rewarding effects of morphine; conditions: Table 11, Suzuki et al., 2000; cited from earlier work
# Control C57/B6 mice = experiment: Conditioned place preference test (dependence test) in control mice; conditions: control mice, 10 mg/kg
# Method: 15-minute habituation was performed for 3 days. Then, 30-minute conditioning was performed on day 4 to day 10, and a behavioral evaluation test was performed on day 11. Saline was injected on day 5, day 7, and day 9. […] In each of the groups, the injection was performed three times, i.e., on day 4, day 6, and day 8. Saline means a group injected with saline.
# The administration of an agent was performed by the same methods as the methods described in Example 2.
# The place preference test was performed using a conditioned place preference test apparatus (BrainScienceIdea Co., Ltd., Osaka, Japan). The analysis of the results of the place preference test was performed by one-way analysis of variance (one-way ANOVA), followed by a least significant difference test (LSD test). Data are presented as the mean plus minus standard error of the mean (n=9 or 10 mice/group). *p<0.05 and **p<0.01 indicate significant differences as compared to a group injected with saline.
# Morphine Seizures = conditions: Not blocked by naloxone; Kolesnikov et al., 1997; cited from earlier work
# [4] = system: medial forebrain bundle self-stimulation in rats; experiment: Intracranial self-stimulation (ICSS), frequency-rate procedure; conditions: for M50, Test, mean log M50 frequency (SEM) / Threshold (T0), Test, mean log T0 frequency (SEM) / M50, Baseline, mean log M50 frequency (SEM) / Threshold (T0), Baseline, mean log T0 frequency (SEM): 10 rats
# [5] = system: morphine withdrawal signs in rats; experiment: Naloxone-precipitated withdrawal from subchronic morphine; assay type: in vivo; conditions: 0.25 mg/kg i.p. before naloxone 1 mg/kg SC, morphine 10 mg/kg SC b.i.d.
# Method: Forty (40) male Wistar rats served as test subjects in this study. Animals were pair housed with unrestricted access to rodent chow and water (SOP ROD.03.01, SOP ROD.04.01, SOP ROD.18). […] All experimental activity occurring during the animals' light cycle. All animal use procedures were performed in accordance with the principles of the Canadian Council on Animal Care (CCAC).
# Forty (40) male Wistar rats were assigned to 5 groups of N=8 rats per group. Group A was dosed with saline vehicle (Sal; subcutaneous (SC) route) twice daily (approx. 08:00±1 h and 18:00±1 h) for 12 days. […] This treatment regimen was designed to induce opioid dependence (Erami et al., 2012). […] On days 9 and 12, rats were tested for naloxone precipitated withdrawal. According to a cross-over design (see Table 4: Treatment Groups), all rats in each group received either acute saline, or naloxone hydrochloride (1 mg/kg; dose volume 2 ml/kg) injection by the SC route, 5 minutes prior to behavioral testing. […] Lofexidine doses are based on literature values (e.g. Shearman et al., 1979). Immediately after vehicle or naloxone injection, rats were transferred to activity chambers for 30 minutes where the animals were visually assessed for somatic signs associated with opioid withdrawal (e.g. writhes, chews, ptosis, WDS, shakes, tremor, penile grooming, body weight change; see Higgins and Sellers, 1994). Simultaneously, the activity pattern (distance travelled, rearing) of each rat was automatically recorded.
# Locomotor activity. Spontaneous activity in the rats was measured with the automated Med Associates activity test chamber for 30 minutes with 10-minute time bins. The tracking arena was 17″W×17″L×12″H, sensor bars are secured 1″ above the floor to track distance travelled, and a second set of sensor bars are placed ˜5″ above the floor to measure vertical movement and rearing activity. The parameters set on the tracking software were as follows: resolution—50 milliseconds (ms), box size—4 beams, resting delay—500 ms, and ambulatory trigger—2 (SOP ROD.25). […]
# [6] = 3 mg/kg i.p. 2 hours prior to test session
# [7] = 10 mg/kg i.p. 2 hours prior to test session
# [8] = 30 mg/kg i.p. 2 hours prior to test session
# [9] = baseline session before dosing on the 3 mg/kg test day
# [10] = baseline session before dosing on the 10 mg/kg test day
# [11] = baseline session before dosing on the 30 mg/kg test day
compound,measurement,setting,value
CNC1(c2ccccc2Cl)CCCCC1=O (racemic) [RS(+/−)-ketamine],"ICSS, anhedonia",[1],"5.6, 10 anhedonia"
same,effective oral doses in patients with depression,patients with depression,0.5 mg/kg
same,"Ethanol Tolerance, dose blocking development of tolerance",[2],1 - tilt-plane test mg/kg
same,"Morphine CPP, dose blocking the rewarding effects of morphine",[3],10 mg/kg
same,CPP score (conditioned place preference test),Control C57/B6 mice,significantly increased the CPP score
same,"Morphine Seizures, dose",Morphine Seizures,0.3 mg/kg
"COC(=O)[C@H]1[C@@H](OC(=O)c2ccccc2)C[C@@H]2CC[C@H]1N2C [Cocaine, cocaine]",ICSS frequency-rate response curve,"[4]; rats, 10 mg/kg",shifts the frequency curve to the left
N[C@@]1(c2ccccc2Cl)CCC[C@@H](O)C1=O [R-hydroxynorketamine],"M50, Test, mean log M50 frequency (SEM)",[4]; [6],2.00 (0.01) log/Hz
same,"Threshold (T0), Test, mean log T0 frequency (SEM)",[4]; [6],1.92 (0.02) log/Hz
same,"M50, Test, mean log M50 frequency (SEM)",[4]; [7],2.00 (0.01) log/Hz
same,"Threshold (T0), Test, mean log T0 frequency (SEM)",[4]; [7],1.90 (0.02) log/Hz
same,"M50, Test, mean log M50 frequency (SEM)",[4]; [8],1.99 (0.02) log/Hz
same,"Threshold (T0), Test, mean log T0 frequency (SEM)",[4]; [8],1.91 (0.03) log/Hz
same,"M50, Baseline, mean log M50 frequency (SEM)",[4]; [9],2.00 (0.02) log/Hz
same,"Threshold (T0), Baseline, mean log T0 frequency (SEM)",[4]; [9],1.89 (0.02) log/Hz
same,"M50, Baseline, mean log M50 frequency (SEM)",[4]; [10],1.98 (0.01) log/Hz
same,"Threshold (T0), Baseline, mean log T0 frequency (SEM)",[4]; [10],1.89 (0.02) log/Hz
same,"M50, Baseline, mean log M50 frequency (SEM)",[4]; [11],1.99 (0.02) log/Hz
same,"Threshold (T0), Baseline, mean log T0 frequency (SEM)",[4]; [11],1.90 (0.02) log/Hz
same,ICSS frequency-rate response curve,"[4]; rats, 3, 10 or 30 mg/kg i.p. 2 hours prior to test session, vs saline vehicle",did not alter the frequency-response function
"CC(Oc1c(Cl)cccc1Cl)C1=NCCN1 (stereo not drawn) [lofexidine, Lofexidine]",overall morphine withdrawal scores (naloxone-precipitated withdrawal signs),[5],significantly attenuated the naloxone-induced withdrawal signs; also recorded: effective

# — patent US11426367B2, “Methods of treating substance abuse” (Perception Neuroscience, Inc., priority 2018, dated 2022)
